Data from patent EP4567167A1, “ELECTROSPUN FIBERS COMPRISING SURFACE-REACTED CALCIUM CARBONATE AND ACTIVE INGREDIENTS” (Omya International AG, priority 2023, dated 2025).

Test: Production of drug-loaded fibers without SRCC by electrospinning
Conditions: PCL in chloroform/acetone
Protocol: The spinning dispersion was prepared by mixing the solid carriers into a 15%, w/w solution of PCL, that was dissolved in a mix of chloroform/acetone, (40/60,w/w). The polymer solution was prepared separately. Therefore, the polymer was added slowly to avoid formation of clumps and subsequently stirred for at least 24 h at room temperature.
The emitter was an assembly of 4 blunt needles (21G) that were surrounded by nitrogen gas saturated with acetone (Figure 3 b)) to avoid bearding at the tip of the needles due to fast evaporation of solvents from the polymer solution. The lateral movement was adapted to the width of the drum collector (0.3 m) at a speed of approx. 0.1 m/s. Working distance (distance between emitter and collector) was 0.2 m and liquid feed rate was kept at 3ml/h for each needle using a syringe pump. A total of 30 ml was spun. The potential was adjusted to approx. -20kV ± 2kV in order to maintain a stable spray. The dimensions of the collector (rotating drum) were 0.3 m in width and a diameter of 0.1 m. The drum was rotated at 500 rpm. The drum was covered with aluminum and finally coated with magnesium-stearate to avoid the product from adhering/sticking to the aluminum foil. The process was constantly supervised. Needles were cleaned and the electric potential was adjusted when necessary to maintain a stable spinning process.

Nc1nc2c(ncn2COCCO)c(=O)[nH]1 [Acyclovir]
solubility in the spinning solution: too low
